{
  "source": "the OligoGym collection",
  "note": "Oligonucleotides are given in HELM: sugar(base)linkage, 5' to 3'; d 2'-deoxyribose, r ribose, m 2'-O-methylribose, p phosphate. ss, as = sense and antisense strand; further: test concentration or dose not given here",
  "data": [
    {"molecular_target": "Mmp7 (rat)", "test": "reporter assay of Huesken 2005", "settings": "siRNA", "units": {"normalised inhibition (eCFP-eYFP dual reporter)": "%"}, "values": [
      {"substance": "RNA1{r(A)p.r(U)p.r(G)p.r(A)p.r(G)p.r(U)p.r(A)p.r(C)p.r(U)p.r(G)p.r(G)p.r(A)p.r(C)p.r(G)p.r(G)p.r(A)p.r(U)p.r(G)p.r(G)p.d(T)p.d(T)}|RNA2{r(C)p.r(C)p.r(A)p.r(U)p.r(C)p.r(C)p.r(G)p.r(U)p.r(C)p.r(C)p.r(A)p.r(G)p.r(U)p.r(A)p.r(C)p.r(U)p.r(C)p.r(A)p.r(U)p.d(C)p.d(C)}$$$RNA1{StrandType:ss}|RNA2{StrandType:as}$", "normalised inhibition (eCFP-eYFP dual reporter)": 41.9},
      {"substance": "RNA1{r(A)p.r(U)p.r(G)p.r(G)p.r(U)p.r(G)p.r(A)p.r(G)p.r(G)p.r(A)p.r(C)p.r(U)p.r(C)p.r(A)p.r(G)p.r(G)p.r(C)p.r(G)p.r(U)p.d(T)p.d(T)}|RNA2{r(A)p.r(C)p.r(G)p.r(C)p.r(C)p.r(U)p.r(G)p.r(A)p.r(G)p.r(U)p.r(C)p.r(C)p.r(U)p.r(C)p.r(A)p.r(C)p.r(C)p.r(A)p.r(U)p.d(C)p.d(C)}$$$RNA1{StrandType:ss}|RNA2{StrandType:as}$", "normalised inhibition (eCFP-eYFP dual reporter)": 65.7},
      {"substance": "RNA1{r(A)p.r(U)p.r(G)p.r(U)p.r(U)p.r(G)p.r(C)p.r(A)p.r(G)p.r(A)p.r(A)p.r(U)p.r(U)p.r(C)p.r(U)p.r(C)p.r(A)p.r(C)p.r(U)p.d(T)p.d(T)}|RNA2{r(A)p.r(G)p.r(U)p.r(G)p.r(A)p.r(G)p.r(A)p.r(A)p.r(U)p.r(U)p.r(C)p.r(U)p.r(G)p.r(C)p.r(A)p.r(A)p.r(C)p.r(A)p.r(U)p.d(C)p.d(T)}$$$RNA1{StrandType:ss}|RNA2{StrandType:as}$", "normalised inhibition (eCFP-eYFP dual reporter)": 80.2},
      {"substance": "RNA1{r(A)p.r(U)p.r(U)p.r(U)p.r(G)p.r(A)p.r(U)p.r(G)p.r(G)p.r(G)p.r(C)p.r(C)p.r(A)p.r(G)p.r(G)p.r(A)p.r(A)p.r(A)p.r(C)p.d(T)p.d(T)}|RNA2{r(G)p.r(U)p.r(U)p.r(U)p.r(C)p.r(C)p.r(U)p.r(G)p.r(G)p.r(C)p.r(C)p.r(C)p.r(A)p.r(U)p.r(C)p.r(A)p.r(A)p.r(A)p.r(U)p.d(G)p.d(G)}$$$RNA1{StrandType:ss}|RNA2{StrandType:as}$", "normalised inhibition (eCFP-eYFP dual reporter)": 10.5},
      {"substance": "RNA1{r(C)p.r(A)p.r(A)p.r(A)p.r(C)p.r(A)p.r(G)p.r(U)p.r(C)p.r(C)p.r(U)p.r(A)p.r(A)p.r(G)p.r(U)p.r(G)p.r(G)p.r(C)p.r(A)p.d(T)p.d(T)}|RNA2{r(U)p.r(G)p.r(C)p.r(C)p.r(A)p.r(C)p.r(U)p.r(U)p.r(A)p.r(G)p.r(G)p.r(A)p.r(C)p.r(U)p.r(G)p.r(U)p.r(U)p.r(U)p.r(G)p.d(G)p.d(C)}$$$RNA1{StrandType:ss}|RNA2{StrandType:as}$", "normalised inhibition (eCFP-eYFP dual reporter)": 81.2},
      {"substance": "RNA1{r(C)p.r(A)p.r(A)p.r(A)p.r(G)p.r(A)p.r(A)p.r(G)p.r(G)p.r(C)p.r(C)p.r(A)p.r(C)p.r(C)p.r(A)p.r(G)p.r(U)p.r(G)p.r(C)p.d(T)p.d(T)}|RNA2{r(G)p.r(C)p.r(A)p.r(C)p.r(U)p.r(G)p.r(G)p.r(U)p.r(G)p.r(G)p.r(C)p.r(C)p.r(U)p.r(U)p.r(C)p.r(U)p.r(U)p.r(U)p.r(G)p.d(T)p.d(T)}$$$RNA1{StrandType:ss}|RNA2{StrandType:as}$", "normalised inhibition (eCFP-eYFP dual reporter)": 38.2},
      {"substance": "RNA1{r(C)p.r(A)p.r(C)p.r(U)p.r(C)p.r(U)p.r(A)p.r(G)p.r(G)p.r(C)p.r(C)p.r(A)p.r(U)p.r(G)p.r(C)p.r(C)p.r(U)p.r(U)p.r(U)p.d(T)p.d(T)}|RNA2{r(A)p.r(A)p.r(A)p.r(G)p.r(G)p.r(C)p.r(A)p.r(U)p.r(G)p.r(G)p.r(C)p.r(C)p.r(U)p.r(A)p.r(G)p.r(A)p.r(G)p.r(U)p.r(G)p.d(T)p.d(T)}$$$RNA1{StrandType:ss}|RNA2{StrandType:as}$", "normalised inhibition (eCFP-eYFP dual reporter)": 101},
      {"substance": "RNA1{r(C)p.r(A)p.r(G)p.r(A)p.r(C)p.r(A)p.r(U)p.r(C)p.r(A)p.r(U)p.r(A)p.r(A)p.r(U)p.r(U)p.r(G)p.r(G)p.r(C)p.r(U)p.r(U)p.d(T)p.d(T)}|RNA2{r(A)p.r(A)p.r(G)p.r(C)p.r(C)p.r(A)p.r(A)p.r(U)p.r(U)p.r(A)p.r(U)p.r(G)p.r(A)p.r(U)p.r(G)p.r(U)p.r(C)p.r(U)p.r(G)p.d(C)p.d(A)}$$$RNA1{StrandType:ss}|RNA2{StrandType:as}$", "normalised inhibition (eCFP-eYFP dual reporter)": 103},
      {"substance": "RNA1{r(C)p.r(A)p.r(G)p.r(U)p.r(G)p.r(C)p.r(A)p.r(G)p.r(U)p.r(G)p.r(G)p.r(A)p.r(C)p.r(A)p.r(A)p.r(A)p.r(C)p.r(U)p.r(G)p.d(T)p.d(T)}|RNA2{r(C)p.r(A)p.r(G)p.r(U)p.r(U)p.r(U)p.r(G)p.r(U)p.r(C)p.r(C)p.r(A)p.r(C)p.r(U)p.r(G)p.r(C)p.r(A)p.r(C)p.r(U)p.r(G)p.d(G)p.d(T)}$$$RNA1{StrandType:ss}|RNA2{StrandType:as}$", "normalised inhibition (eCFP-eYFP dual reporter)": 100},
      {"substance": "RNA1{r(C)p.r(A)p.r(U)p.r(A)p.r(A)p.r(U)p.r(U)p.r(G)p.r(G)p.r(C)p.r(U)p.r(U)p.r(C)p.r(G)p.r(C)p.r(A)p.r(A)p.r(G)p.r(G)p.d(T)p.d(T)}|RNA2{r(C)p.r(C)p.r(U)p.r(U)p.r(G)p.r(C)p.r(G)p.r(A)p.r(A)p.r(G)p.r(C)p.r(C)p.r(A)p.r(A)p.r(U)p.r(U)p.r(A)p.r(U)p.r(G)p.d(A)p.d(T)}$$$RNA1{StrandType:ss}|RNA2{StrandType:as}$", "normalised inhibition (eCFP-eYFP dual reporter)": 63.1},
      {"substance": "RNA1{r(C)p.r(A)p.r(U)p.r(G)p.r(G)p.r(A)p.r(G)p.r(A)p.r(U)p.r(A)p.r(A)p.r(U)p.r(G)p.r(C)p.r(A)p.r(G)p.r(A)p.r(A)p.r(G)p.d(T)p.d(T)}|RNA2{r(C)p.r(U)p.r(U)p.r(C)p.r(U)p.r(G)p.r(C)p.r(A)p.r(U)p.r(U)p.r(A)p.r(U)p.r(C)p.r(U)p.r(C)p.r(C)p.r(A)p.r(U)p.r(G)p.d(A)p.d(C)}$$$RNA1{StrandType:ss}|RNA2{StrandType:as}$", "normalised inhibition (eCFP-eYFP dual reporter)": 97.5},
      {"substance": "RNA1{r(C)p.r(C)p.r(A)p.r(G)p.r(G)p.r(A)p.r(A)p.r(A)p.r(C)p.r(A)p.r(C)p.r(U)p.r(C)p.r(U)p.r(A)p.r(G)p.r(G)p.r(C)p.r(C)p.d(T)p.d(T)}|RNA2{r(G)p.r(G)p.r(C)p.r(C)p.r(U)p.r(A)p.r(G)p.r(A)p.r(G)p.r(U)p.r(G)p.r(U)p.r(U)p.r(U)p.r(C)p.r(C)p.r(U)p.r(G)p.r(G)p.d(C)p.d(C)}$$$RNA1{StrandType:ss}|RNA2{StrandType:as}$", "normalised inhibition (eCFP-eYFP dual reporter)": 33.8},
      {"substance": "RNA1{r(C)p.r(C)p.r(A)p.r(G)p.r(G)p.r(A)p.r(A)p.r(G)p.r(C)p.r(C)p.r(G)p.r(G)p.r(A)p.r(G)p.r(A)p.r(A)p.r(G)p.r(U)p.r(G)p.d(T)p.d(T)}|RNA2{r(C)p.r(A)p.r(C)p.r(U)p.r(U)p.r(C)p.r(U)p.r(C)p.r(C)p.r(G)p.r(G)p.r(C)p.r(U)p.r(U)p.r(C)p.r(C)p.r(U)p.r(G)p.r(G)p.d(G)p.d(A)}$$$RNA1{StrandType:ss}|RNA2{StrandType:as}$", "normalised inhibition (eCFP-eYFP dual reporter)": 72.2},
      {"substance": "RNA1{r(C)p.r(C)p.r(A)p.r(G)p.r(G)p.r(U)p.r(G)p.r(U)p.r(G)p.r(G)p.r(A)p.r(G)p.r(U)p.r(G)p.r(C)p.r(C)p.r(A)p.r(G)p.r(A)p.d(T)p.d(T)}|RNA2{r(U)p.r(C)p.r(U)p.r(G)p.r(G)p.r(C)p.r(A)p.r(C)p.r(U)p.r(C)p.r(C)p.r(A)p.r(C)p.r(A)p.r(C)p.r(C)p.r(U)p.r(G)p.r(G)p.d(G)p.d(C)}$$$RNA1{StrandType:ss}|RNA2{StrandType:as}$", "normalised inhibition (eCFP-eYFP dual reporter)": 85.6}
    ]}
  ]
}
